Data: PubChem BioAssay (NCI)
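Following 48 hours of exposure in 96-well plates, responses at five concentrations were used to interpolate endpoints linearly. Definition used: TGI = concentration required for complete inhibition of growth.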

tested on: SR leukemia; test: inhibition of tumour cell growth, NCI panel, 48 h

SMILES	TGI [µM]
NCCCCC(N)C(=O)NCCNc1ccc(NCCNC(=O)C(N)CCCCN)c2c1C(=O)c1ccccc1C2=O (centres undefined)	> 100
CC(C)(C)c1ccc(-c2nc3ccc(Cl)cc3c(=O)o2)cc1	47.9

tested on: SW-620 colon; test: inhibition of tumour cell growth, NCI panel, 48 h

SMILES	TGI [µM]
CCCCCCC(=O)C/C(=N/NC(N)=S)C(=O)NC1C2CC3CC(C2)CC1C3 (centres undefined)	> 100
CC1=CC(=O)N(n2c(Cc3ccccc3)n[nH]c2=O)C1=O	> 100
CCNc1cc2c(cc1O)CC[C@@H]1[C@@H]2CC[C@]2(C)[C@@H](O)CC[C@@H]12	19
O=[N+]([O-])c1cccc2nc3ccccc3c(NCCC[N+]3([O-])CCOCC3)c12	1.6
NCCCCC(N)C(=O)NCCNc1ccc(NCCNC(=O)C(N)CCCCN)c2c1C(=O)c1ccccc1C2=O (centres undefined)	> 100
C=CCc1cc(-c2cc(CC=C)c(O)c(CNCCCl)c2)cc(CNCCCl)c1O	44.3
CC(C)(C)c1ccc(-c2nc3ccc(Cl)cc3c(=O)o2)cc1	> 100

tested on: T-47D breast; test: inhibition of tumour cell growth, NCI panel, 48 h

SMILES	TGI [µM]
CC1=CC(=O)N(n2c(Cc3ccccc3)n[nH]c2=O)C1=O	> 100
CCNc1cc2c(cc1O)CC[C@@H]1[C@@H]2CC[C@]2(C)[C@@H](O)CC[C@@H]12	> 55.3
O=[N+]([O-])c1cccc2nc3ccccc3c(NCCC[N+]3([O-])CCOCC3)c12	0.919
NCCCCC(N)C(=O)NCCNc1ccc(NCCNC(=O)C(N)CCCCN)c2c1C(=O)c1ccccc1C2=O (centres undefined)	> 100
CC(C)(C)c1ccc(-c2nc3ccc(Cl)cc3c(=O)o2)cc1	> 100

tested on: TK-10 renal; test: inhibition of tumour cell growth, NCI panel, 48 h

SMILES	TGI [µM]
CCCCCCC(=O)C/C(=N/NC(N)=S)C(=O)NC1C2CC3CC(C2)CC1C3 (centres undefined)	> 100
CC1=CC(=O)N(n2c(Cc3ccccc3)n[nH]c2=O)C1=O	> 100
CCNc1cc2c(cc1O)CC[C@@H]1[C@@H]2CC[C@]2(C)[C@@H](O)CC[C@@H]12	34
O=[N+]([O-])c1cccc2nc3ccccc3c(NCCC[N+]3([O-])CCOCC3)c12	3.33
NCCCCC(N)C(=O)NCCNc1ccc(NCCNC(=O)C(N)CCCCN)c2c1C(=O)c1ccccc1C2=O (centres undefined)	> 100
C=CCc1cc(-c2cc(CC=C)c(O)c(CNCCCl)c2)cc(CNCCCl)c1O	57.5
CC(C)(C)c1ccc(-c2nc3ccc(Cl)cc3c(=O)o2)cc1	> 100

tested on: U251 CNS; test: inhibition of tumour cell growth, NCI panel, 48 h

SMILES	TGI [µM]
CCCCCCC(=O)C/C(=N/NC(N)=S)C(=O)NC1C2CC3CC(C2)CC1C3 (centres undefined)	> 100
CC1=CC(=O)N(n2c(Cc3ccccc3)n[nH]c2=O)C1=O	> 100
CCNc1cc2c(cc1O)CC[C@@H]1[C@@H]2CC[C@]2(C)[C@@H](O)CC[C@@H]12	18.5
O=[N+]([O-])c1cccc2nc3ccccc3c(NCCC[N+]3([O-])CCOCC3)c12	0.964
NCCCCC(N)C(=O)NCCNc1ccc(NCCNC(=O)C(N)CCCCN)c2c1C(=O)c1ccccc1C2=O (centres undefined)	> 100
C=CCc1cc(-c2cc(CC=C)c(O)c(CNCCCl)c2)cc(CNCCCl)c1O	30.7
CC(C)(C)c1ccc(-c2nc3ccc(Cl)cc3c(=O)o2)cc1	31.3

tested on: UACC-257 melanoma; test: inhibition of tumour cell growth, NCI panel, 48 h

SMILES	TGI [µM]
CCCCCCC(=O)C/C(=N/NC(N)=S)C(=O)NC1C2CC3CC(C2)CC1C3 (centres undefined)	> 100
CC1=CC(=O)N(n2c(Cc3ccccc3)n[nH]c2=O)C1=O	> 100
CCNc1cc2c(cc1O)CC[C@@H]1[C@@H]2CC[C@]2(C)[C@@H](O)CC[C@@H]12	25
O=[N+]([O-])c1cccc2nc3ccccc3c(NCCC[N+]3([O-])CCOCC3)c12	1.29
NCCCCC(N)C(=O)NCCNc1ccc(NCCNC(=O)C(N)CCCCN)c2c1C(=O)c1ccccc1C2=O (centres undefined)	> 100
C=CCc1cc(-c2cc(CC=C)c(O)c(CNCCCl)c2)cc(CNCCCl)c1O	32.4
CC(C)(C)c1ccc(-c2nc3ccc(Cl)cc3c(=O)o2)cc1	65.1

tested on: UACC-62 melanoma; test: inhibition of tumour cell growth, NCI panel, 48 h

SMILES	TGI [µM]
CCCCCCC(=O)C/C(=N/NC(N)=S)C(=O)NC1C2CC3CC(C2)CC1C3 (centres undefined)	> 100
CC1=CC(=O)N(n2c(Cc3ccccc3)n[nH]c2=O)C1=O	> 100
CCNc1cc2c(cc1O)CC[C@@H]1[C@@H]2CC[C@]2(C)[C@@H](O)CC[C@@H]12	> 35
O=[N+]([O-])c1cccc2nc3ccccc3c(NCCC[N+]3([O-])CCOCC3)c12	0.319
NCCCCC(N)C(=O)NCCNc1ccc(NCCNC(=O)C(N)CCCCN)c2c1C(=O)c1ccccc1C2=O (centres undefined)	> 100
C=CCc1cc(-c2cc(CC=C)c(O)c(CNCCCl)c2)cc(CNCCCl)c1O	28.3
CC(C)(C)c1ccc(-c2nc3ccc(Cl)cc3c(=O)o2)cc1	56.5

tested on: UO-31 renal; test: inhibition of tumour cell growth, NCI panel, 48 h

SMILES	TGI [µM]
CCCCCCC(=O)C/C(=N/NC(N)=S)C(=O)NC1C2CC3CC(C2)CC1C3 (centres undefined)	> 100
CC1=CC(=O)N(n2c(Cc3ccccc3)n[nH]c2=O)C1=O	> 100
CCNc1cc2c(cc1O)CC[C@@H]1[C@@H]2CC[C@]2(C)[C@@H](O)CC[C@@H]12	24.3
O=[N+]([O-])c1cccc2nc3ccccc3c(NCCC[N+]3([O-])CCOCC3)c12	4.59
NCCCCC(N)C(=O)NCCNc1ccc(NCCNC(=O)C(N)CCCCN)c2c1C(=O)c1ccccc1C2=O (centres undefined)	> 100
C=CCc1cc(-c2cc(CC=C)c(O)c(CNCCCl)c2)cc(CNCCCl)c1O	28.6
CC(C)(C)c1ccc(-c2nc3ccc(Cl)cc3c(=O)o2)cc1	77.6
